# Experimental data as given in ChEMBL document CHEMBL5291721, “A preclinical secondary pharmacology resource illuminates target-adverse drug reaction associations of marketed drugs” (Nat Commun, 2023).
# Assays:
# [1] = biological target: Voltage-gated inwardly rectifying potassium channel KCNH2 (Homo sapiens, UniProt Q12809); assay type: functional
# Mu-type opioid receptor = Mu-type opioid receptor (Homo sapiens, UniProt P35372)
# Estrogen receptor = biological target: T1, Estrogen receptor (Homo sapiens, UniProt P03372)
# T1 sequence (P03372 whole entry): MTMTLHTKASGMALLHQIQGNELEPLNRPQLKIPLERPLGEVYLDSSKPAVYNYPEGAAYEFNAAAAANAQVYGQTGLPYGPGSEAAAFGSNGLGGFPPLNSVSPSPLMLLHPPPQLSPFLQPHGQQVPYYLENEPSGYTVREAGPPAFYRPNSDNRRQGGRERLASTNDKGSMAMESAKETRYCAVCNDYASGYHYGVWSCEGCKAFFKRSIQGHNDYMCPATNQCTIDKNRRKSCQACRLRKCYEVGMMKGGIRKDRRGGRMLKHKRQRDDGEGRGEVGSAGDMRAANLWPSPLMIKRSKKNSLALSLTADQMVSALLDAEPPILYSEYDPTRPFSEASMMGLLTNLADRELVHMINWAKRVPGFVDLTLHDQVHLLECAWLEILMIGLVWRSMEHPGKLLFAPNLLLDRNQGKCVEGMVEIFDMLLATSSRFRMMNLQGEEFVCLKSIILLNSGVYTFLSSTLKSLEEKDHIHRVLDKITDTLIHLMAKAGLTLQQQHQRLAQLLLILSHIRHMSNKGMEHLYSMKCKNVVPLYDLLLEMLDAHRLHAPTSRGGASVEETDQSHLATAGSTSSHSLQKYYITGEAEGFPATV
# Vasopressin V2 receptor = Vasopressin V2 receptor (Homo sapiens, UniProt P30518)
# Thromboxane A2 receptor = biological target: T2, Thromboxane A2 receptor (Homo sapiens, UniProt P21731)
# T2 sequence (P21731 whole entry): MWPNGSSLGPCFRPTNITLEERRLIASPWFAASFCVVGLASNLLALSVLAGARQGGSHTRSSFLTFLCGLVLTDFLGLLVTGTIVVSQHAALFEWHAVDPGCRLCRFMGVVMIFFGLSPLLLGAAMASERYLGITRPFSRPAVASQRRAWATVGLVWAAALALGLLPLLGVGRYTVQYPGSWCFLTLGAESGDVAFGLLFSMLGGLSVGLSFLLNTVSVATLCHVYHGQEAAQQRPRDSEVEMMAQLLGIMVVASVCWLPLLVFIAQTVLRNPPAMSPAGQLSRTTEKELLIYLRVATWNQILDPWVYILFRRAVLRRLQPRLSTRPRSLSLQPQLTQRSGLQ
# Histamine H2 receptor = Histamine H2 receptor (Homo sapiens, UniProt P25021); assay type: functional, cell-based
# Vasopressin V1a receptor = Vasopressin V1a receptor (Homo sapiens, UniProt P37288)
# [2] = biological target: Glutamate receptor ionotropic, NMDA 1 (Rattus norvegicus, UniProt P35439)
# [3] = biological target: T3, 5-hydroxytryptamine receptor 2C (Homo sapiens, UniProt P28335)
# T3 sequence (P28335 whole entry): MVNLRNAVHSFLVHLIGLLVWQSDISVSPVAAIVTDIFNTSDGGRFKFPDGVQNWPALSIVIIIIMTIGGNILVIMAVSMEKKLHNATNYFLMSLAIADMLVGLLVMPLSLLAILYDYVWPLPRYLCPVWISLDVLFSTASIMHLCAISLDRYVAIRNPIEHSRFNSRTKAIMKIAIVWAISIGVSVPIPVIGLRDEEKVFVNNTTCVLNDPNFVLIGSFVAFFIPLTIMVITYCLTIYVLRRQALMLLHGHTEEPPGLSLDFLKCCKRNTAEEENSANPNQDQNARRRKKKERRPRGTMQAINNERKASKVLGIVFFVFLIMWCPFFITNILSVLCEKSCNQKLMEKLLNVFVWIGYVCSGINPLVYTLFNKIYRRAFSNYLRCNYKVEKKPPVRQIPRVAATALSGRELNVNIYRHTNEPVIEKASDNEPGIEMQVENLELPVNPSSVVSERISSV
# [4] = biological target: T4, Neuropeptide Y receptor type 1 (Homo sapiens, UniProt P25929); conditions: read-out: AC50
# T4 sequence (P25929 whole entry): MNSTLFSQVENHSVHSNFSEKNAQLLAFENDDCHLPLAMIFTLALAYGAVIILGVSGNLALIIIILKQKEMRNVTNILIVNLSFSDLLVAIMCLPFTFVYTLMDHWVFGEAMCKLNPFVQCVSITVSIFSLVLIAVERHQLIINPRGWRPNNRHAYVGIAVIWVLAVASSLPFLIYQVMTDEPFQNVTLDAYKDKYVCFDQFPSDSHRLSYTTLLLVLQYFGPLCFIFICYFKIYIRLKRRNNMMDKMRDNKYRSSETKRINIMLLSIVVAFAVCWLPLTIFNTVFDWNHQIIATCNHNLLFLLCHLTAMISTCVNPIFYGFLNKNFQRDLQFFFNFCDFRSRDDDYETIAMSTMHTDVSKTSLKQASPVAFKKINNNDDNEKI
# [5] = biological target: T5, Prostaglandin G/H synthase 1 (Rattus norvegicus, UniProt Q63921); assay type: functional
# T5 sequence (Q63921 whole entry): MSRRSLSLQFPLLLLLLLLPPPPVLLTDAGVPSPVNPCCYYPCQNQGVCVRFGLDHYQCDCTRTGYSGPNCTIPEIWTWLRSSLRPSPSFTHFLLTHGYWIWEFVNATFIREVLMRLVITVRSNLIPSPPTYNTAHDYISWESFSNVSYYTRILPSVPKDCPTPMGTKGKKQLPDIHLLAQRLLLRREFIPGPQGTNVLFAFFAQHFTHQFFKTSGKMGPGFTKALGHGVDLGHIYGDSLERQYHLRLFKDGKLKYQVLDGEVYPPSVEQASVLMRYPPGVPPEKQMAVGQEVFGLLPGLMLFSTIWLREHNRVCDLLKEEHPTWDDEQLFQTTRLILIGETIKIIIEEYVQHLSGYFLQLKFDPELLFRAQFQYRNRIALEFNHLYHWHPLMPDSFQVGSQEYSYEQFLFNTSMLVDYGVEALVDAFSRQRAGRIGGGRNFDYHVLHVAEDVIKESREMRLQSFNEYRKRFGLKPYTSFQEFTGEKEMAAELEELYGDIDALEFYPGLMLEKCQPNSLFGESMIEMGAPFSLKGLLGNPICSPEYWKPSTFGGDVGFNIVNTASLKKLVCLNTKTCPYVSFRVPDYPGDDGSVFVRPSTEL
# Note: assay procedure not described here.
# Voltage-gated inwardly rectifying potassium channel KCNH2, sequence (Q12809 whole entry): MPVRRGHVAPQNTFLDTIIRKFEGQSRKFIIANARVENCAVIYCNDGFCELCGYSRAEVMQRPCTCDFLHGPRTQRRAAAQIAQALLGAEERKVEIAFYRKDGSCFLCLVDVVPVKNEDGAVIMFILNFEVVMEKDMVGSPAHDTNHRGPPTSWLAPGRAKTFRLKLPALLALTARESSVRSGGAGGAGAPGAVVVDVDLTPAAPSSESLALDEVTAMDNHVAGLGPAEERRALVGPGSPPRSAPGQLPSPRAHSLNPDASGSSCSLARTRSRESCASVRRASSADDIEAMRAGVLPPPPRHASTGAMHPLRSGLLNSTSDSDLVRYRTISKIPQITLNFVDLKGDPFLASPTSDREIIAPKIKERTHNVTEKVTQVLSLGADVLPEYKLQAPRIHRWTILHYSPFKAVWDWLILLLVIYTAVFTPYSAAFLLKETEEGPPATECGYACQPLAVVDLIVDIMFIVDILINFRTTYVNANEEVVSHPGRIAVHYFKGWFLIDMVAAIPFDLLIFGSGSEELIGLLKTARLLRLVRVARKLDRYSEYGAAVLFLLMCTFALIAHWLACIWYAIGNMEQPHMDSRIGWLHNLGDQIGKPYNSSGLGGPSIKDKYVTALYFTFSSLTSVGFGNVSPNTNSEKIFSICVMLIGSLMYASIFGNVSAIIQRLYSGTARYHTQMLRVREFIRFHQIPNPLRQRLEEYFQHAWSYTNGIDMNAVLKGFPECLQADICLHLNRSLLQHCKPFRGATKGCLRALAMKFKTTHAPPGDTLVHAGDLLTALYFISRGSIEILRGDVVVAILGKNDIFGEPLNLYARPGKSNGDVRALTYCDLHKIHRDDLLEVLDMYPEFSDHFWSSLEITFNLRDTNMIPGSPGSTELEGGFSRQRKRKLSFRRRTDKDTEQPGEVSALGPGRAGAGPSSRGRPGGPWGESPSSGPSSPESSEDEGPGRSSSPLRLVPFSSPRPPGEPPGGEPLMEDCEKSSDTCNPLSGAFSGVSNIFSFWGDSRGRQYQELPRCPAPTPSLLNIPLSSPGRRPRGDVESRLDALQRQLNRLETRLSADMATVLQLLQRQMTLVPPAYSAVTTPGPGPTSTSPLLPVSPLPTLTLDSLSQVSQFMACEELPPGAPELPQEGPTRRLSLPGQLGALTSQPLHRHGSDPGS
# Mu-type opioid receptor, sequence (P35372 whole entry): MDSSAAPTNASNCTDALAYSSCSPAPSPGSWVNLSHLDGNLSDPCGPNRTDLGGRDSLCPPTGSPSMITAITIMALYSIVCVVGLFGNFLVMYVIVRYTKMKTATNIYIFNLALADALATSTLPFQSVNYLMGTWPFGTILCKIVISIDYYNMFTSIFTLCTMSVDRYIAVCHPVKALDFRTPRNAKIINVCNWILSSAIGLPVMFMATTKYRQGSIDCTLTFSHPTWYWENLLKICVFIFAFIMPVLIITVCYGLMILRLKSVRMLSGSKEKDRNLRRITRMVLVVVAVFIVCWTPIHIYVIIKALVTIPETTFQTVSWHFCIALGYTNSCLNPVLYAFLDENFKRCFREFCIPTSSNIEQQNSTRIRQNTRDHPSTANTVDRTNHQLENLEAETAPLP
# Vasopressin V1a receptor, sequence (P37288 whole entry): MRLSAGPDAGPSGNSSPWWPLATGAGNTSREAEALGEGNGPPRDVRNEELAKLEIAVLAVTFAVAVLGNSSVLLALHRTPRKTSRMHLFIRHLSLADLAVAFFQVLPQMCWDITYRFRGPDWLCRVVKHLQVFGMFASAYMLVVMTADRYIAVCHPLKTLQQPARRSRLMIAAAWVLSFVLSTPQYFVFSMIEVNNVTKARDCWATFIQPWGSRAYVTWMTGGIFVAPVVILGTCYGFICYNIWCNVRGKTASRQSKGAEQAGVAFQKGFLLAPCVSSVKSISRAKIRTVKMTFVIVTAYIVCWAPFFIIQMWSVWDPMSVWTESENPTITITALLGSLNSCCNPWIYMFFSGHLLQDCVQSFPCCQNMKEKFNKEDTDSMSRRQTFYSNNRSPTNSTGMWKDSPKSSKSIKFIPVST
# Histamine H2 receptor, sequence (P25021 whole entry): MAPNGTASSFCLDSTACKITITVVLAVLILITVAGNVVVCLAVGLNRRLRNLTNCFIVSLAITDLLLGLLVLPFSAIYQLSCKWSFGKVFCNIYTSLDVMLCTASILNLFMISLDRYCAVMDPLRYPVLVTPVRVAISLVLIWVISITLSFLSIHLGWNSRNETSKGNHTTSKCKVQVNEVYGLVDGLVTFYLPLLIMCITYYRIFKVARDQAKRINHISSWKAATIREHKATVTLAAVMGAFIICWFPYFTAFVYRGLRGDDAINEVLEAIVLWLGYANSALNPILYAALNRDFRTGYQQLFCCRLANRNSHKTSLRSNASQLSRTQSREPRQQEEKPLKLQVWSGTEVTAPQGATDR
# Vasopressin V2 receptor, sequence (P30518 whole entry): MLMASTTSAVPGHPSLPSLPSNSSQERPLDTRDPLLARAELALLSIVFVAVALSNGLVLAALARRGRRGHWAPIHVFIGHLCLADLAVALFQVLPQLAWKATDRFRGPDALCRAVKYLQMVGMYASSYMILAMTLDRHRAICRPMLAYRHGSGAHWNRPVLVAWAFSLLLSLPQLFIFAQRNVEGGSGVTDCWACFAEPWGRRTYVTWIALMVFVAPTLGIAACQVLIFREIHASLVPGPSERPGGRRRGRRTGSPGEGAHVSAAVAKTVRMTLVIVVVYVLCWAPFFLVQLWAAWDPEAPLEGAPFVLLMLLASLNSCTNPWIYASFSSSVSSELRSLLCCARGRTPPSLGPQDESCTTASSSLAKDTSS
SMILES,AC50 [1] [µM],AC50 (Mu-type opioid receptor) [µM],AC50 (Estrogen receptor) [µM],AC50 (Vasopressin V2 receptor) [µM],AC50 (Thromboxane A2 receptor) [µM],AC50 (Histamine H2 receptor) [µM],AC50 (Vasopressin V1a receptor) [µM],AC50 [2] [µM],AC50 [3] [µM],AC50 [4] [µM],AC50 [5] [µM]
NC(=O)OCC(O)COc1ccc(Cl)cc1 (centres undefined) [CHLORPHENESIN CARBAMATE],> 30,> 30,> 30,–,–,–,–,–,–,–,–
CN1CCN(C2=Nc3ccccc3Oc3ccc(Cl)cc32)CC1 [LOXAPINE],10.6,8.61,> 30,> 30,> 30,> 10,> 10,> 10,0.029,> 30,> 30
CC(=O)O[C@]1(C(C)=O)CC[C@H]2[C@@H]3C=C(Cl)C4=CC(=O)CC[C@]4(C)[C@H]3CC[C@@]21C [CHLORMADINONE ACETATE],> 30,> 30,> 30,–,–,–,–,–,–,–,–
Cc1ncc(COP(=O)(O)O)c(C=O)c1O [PYRIDOXAL PHOSPHATE ANHYDROUS],> 30,> 30,10.3,–,–,–,–,–,–,–,–
CC(N)Cc1ccc(O)cc1 (centres undefined) [HYDROXYAMPHETAMINE],> 30,> 30,> 30,–,–,–,–,–,–,–,–
CC(C(=O)O)c1ccc(-c2ccccc2)c(F)c1 (centres undefined) [FLURBIPROFEN],> 30,> 30,> 30,> 10,> 10,> 10,> 10,> 10,2.6,> 10,11
CC(C)N(CCNC(=O)CN1CCCC1=O)C(C)C,> 30,> 30,> 30,–,–,–,–,–,–,–,–
NCC(CC(=O)O)c1ccccc1 (centres undefined) [PHENIBUT],> 30,> 30,> 30,–,–,–,–,–,–,–,–
COC(=O)c1ccc(O)cc1 [METHYLPARABEN],> 30,> 30,> 30,–,–,–,–,–,–,–,–
Cc1cc(N)c2ccccc2[n+]1CCCCCCCCCC[n+]1c(C)cc(N)c2ccccc21,0.133,0.684,20.8,–,–,–,–,–,–,–,–
CC(C)(C)NC[C@H](O)COc1cccc2c1CCCC2=O [LEVOBUNOLOL],> 30,> 30,> 30,–,–,–,–,–,–,–,–
CN1C(=O)/C(=N\NC(N)=S)c2ccccc21 [METHISAZONE],> 30,> 30,> 30,–,–,–,–,–,–,–,–
COc1cc2c(cc1OC)CC(=O)N(CCCN(C)C[C@H]1Cc3cc(OC)c(OC)cc31)CC2 [IVABRADINE],30,> 30,> 30,–,–,–,–,–,–,–,–
CCCc1nc(C(C)(C)O)c(C(=O)O)n1Cc1ccc(-c2ccccc2-c2nnn[nH]2)cc1 [OLMESARTAN],> 30,> 30,> 30,–,–,–,–,–,–,–,–
CCOC(=O)[C@H](CCc1ccccc1)N[C@@H](C)C(=O)N(CC(=O)O)C1Cc2ccccc2C1,> 30,> 30,> 30,–,–,–,–,–,–,–,–
CCOC(=O)N1CSC[C@H]1C(=O)O [TELMESTEINE],> 30,> 30,> 30,–,–,–,–,–,–,–,–
